In PMC4694659, “Biochemical Characterization of Medaka (Oryzias latipes) Transglutaminases, OlTGK1 and OlTGK2, as Orthologues of Human Keratinocyte-Type Transglutaminase” (PLoS ONE, 2015):

Columns and labels:
OlTGK1 = molecular target: T1, OlTGK1 (Oryzias latipes, UniProt A0A0S3Q197); test: microplate transamidation: incorporation of bio-Cd into coated beta-casein, streptavidin-peroxidase read-out; assay type: biochemical; settings: amine acceptor substrate; co-substrate beta-casein (coated); CaCl2; Tris-Cl pH 8.0; 25 °C; 20 min; labelled compound
T1 construct: full-length ORF (2067 bp, 688 residues), N-terminal hexahistidine tag, pET24d, E. coli BL21(DE3)LysS; cDNA cloned from embryonic medaka cDNA library (fish kept: Cab strain)
T1 sequence (A0A0S3Q197 1-688): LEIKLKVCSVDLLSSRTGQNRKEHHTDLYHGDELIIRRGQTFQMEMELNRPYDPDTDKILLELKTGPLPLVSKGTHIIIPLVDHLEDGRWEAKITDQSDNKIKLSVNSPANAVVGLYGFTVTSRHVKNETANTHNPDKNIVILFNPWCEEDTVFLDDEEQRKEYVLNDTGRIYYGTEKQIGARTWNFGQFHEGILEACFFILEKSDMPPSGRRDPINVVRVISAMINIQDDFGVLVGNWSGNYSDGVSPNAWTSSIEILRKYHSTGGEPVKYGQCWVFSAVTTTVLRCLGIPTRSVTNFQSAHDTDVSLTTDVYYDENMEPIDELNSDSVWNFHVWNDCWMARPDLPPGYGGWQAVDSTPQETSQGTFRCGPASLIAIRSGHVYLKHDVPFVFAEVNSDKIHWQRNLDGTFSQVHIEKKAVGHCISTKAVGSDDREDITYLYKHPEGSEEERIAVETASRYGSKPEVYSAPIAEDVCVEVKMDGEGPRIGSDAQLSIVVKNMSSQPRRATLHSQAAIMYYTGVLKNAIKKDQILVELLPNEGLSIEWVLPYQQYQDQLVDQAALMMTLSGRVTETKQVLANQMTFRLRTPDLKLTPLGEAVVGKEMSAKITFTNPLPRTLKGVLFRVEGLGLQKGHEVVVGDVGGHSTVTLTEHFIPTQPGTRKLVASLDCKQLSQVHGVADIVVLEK

OlTGK2 = molecular target: T2, OlTGK2 (Oryzias latipes, UniProt A0A0S3Q1B1); test: as above; assay type: biochemical; settings: amine acceptor substrate; co-substrate beta-casein (coated); CaCl2; Tris-Cl pH 8.0; 25 °C; 20 min; labelled compound
T2 construct: full-length ORF (2340 bp, 778 residues as printed), N-terminal hexahistidine tag, pET24d, E. coli BL21(DE3)LysS; NBRP cDNA clone olsp48d24 (fish kept: Cab strain)
T2 sequence (A0A0S3Q1B1 1-779): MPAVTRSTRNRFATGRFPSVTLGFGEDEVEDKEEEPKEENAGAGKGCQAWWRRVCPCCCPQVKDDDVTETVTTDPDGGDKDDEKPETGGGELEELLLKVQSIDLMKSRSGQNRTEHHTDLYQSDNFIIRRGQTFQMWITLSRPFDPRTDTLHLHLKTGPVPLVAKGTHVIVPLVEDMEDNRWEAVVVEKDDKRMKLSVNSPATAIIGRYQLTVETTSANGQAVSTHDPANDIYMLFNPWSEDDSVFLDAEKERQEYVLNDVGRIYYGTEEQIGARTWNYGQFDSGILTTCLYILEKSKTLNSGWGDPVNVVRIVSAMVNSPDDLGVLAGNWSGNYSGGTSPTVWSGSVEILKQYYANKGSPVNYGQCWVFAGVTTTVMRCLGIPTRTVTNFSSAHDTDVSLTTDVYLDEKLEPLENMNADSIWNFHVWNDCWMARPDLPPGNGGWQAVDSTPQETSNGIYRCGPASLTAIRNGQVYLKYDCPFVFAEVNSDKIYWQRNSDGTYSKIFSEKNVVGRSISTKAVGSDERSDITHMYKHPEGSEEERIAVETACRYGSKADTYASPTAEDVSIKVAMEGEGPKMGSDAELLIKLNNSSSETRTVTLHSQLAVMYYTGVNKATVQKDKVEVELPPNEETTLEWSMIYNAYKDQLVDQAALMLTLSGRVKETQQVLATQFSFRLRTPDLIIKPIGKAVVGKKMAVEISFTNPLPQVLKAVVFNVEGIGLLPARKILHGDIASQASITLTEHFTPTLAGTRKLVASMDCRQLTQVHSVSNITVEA

NCCCCCNC(=O)CCCC[C@@H]1SC[C@@H]2NC(=O)N[C@@H]21 [bio-Cd]
microplate transamidation: incorporation of bio-Cd into coated beta-casein, stre (OlTGK1): apparent incorporation was observed in the presence of three-different amounts of OlTGK1 and OlTGK2 | microplate transamidation: incorporation of bio-Cd into coated beta-casein, stre (OlTGK2): apparent incorporation was observed in the presence of three-different amounts of OlTGK1 and OlTGK2
